According to patent publication US20220267444A1, “ANTI-PD-1 ANTIBODY AND MEDICAL USE THEREOF” (CTTQ-AKESO (SHANGHAI) BIOMED. TECH. CO., LTD., priority 2019, published 2022):

Legend:
[1] = test system: human colorectal cancer SW837 cells; experiment: Raji-PDL1, PBMC and SW837 co-culture, IL-2 ELISA; assay type: cell-based; settings: 3 days
Method: SW837 is a human colorectal cancer cell line of non-MSI-H/dMMR (i.e., MSS) phenotype (Guo J et al., Cancer Res., 2011; 71(8):2978-2987), and was used for detecting the enhanced immune cell response to tumor of non-MSI-H/dMMR (i.e., MSS) phenotype by 14C12H1L1(hG1TM) in this example.
PBMCs were isolated from healthy human peripheral blood according to the Ficoll-Paque™ Plus reagent instruction, and the isolated PBMCs were counted and frozen. Raji-PDL1 cells were cultured in RPMI 1640+10% FBS complete medium, and SW837 cells (purchased from Shanghai Honsun Biological Technology Co., Ltd) were cultured in 10% FBS+Leibovitz's L-15 complete medium (purchased from Gibco). PBMCs were thawed and activated with 0.5 μg/mL SEB for two days. On the day of the experiment, Raji-PDL1 cells were treated with 2 μg/mL MMC for 1 h. SEB-activated PBMCs and MMC-treated Raji-PDL1 cells were collected, washed twice with PBS, resuspended in RPMI 1640+10% FBS complete medium and counted. Raji-PDL1 and PBMC cells were seeded on 96-well plates at 1×10^5 cells/well. SW837 cells in logarithmic growth phase were collected and seeded on the 96-well plate at 5×10^4 cells/well. The diluted antibody was added according to the study design. The mixture was mixed evenly and incubated in a 5% CO2 incubator at 37° C. for 3 days. […]

[2] = test system: MSI-H/dMMR tumor SW48 cells; experiment: Raji-PDL1, PBMC and SW48 co-culture with antibodies and anlotinib, IL-2 ELISA; assay type: cell-based, human; settings: 3 days, compared to anti-HEL antibody
Method: SW48 is a human colorectal cancer cell line and is identified with MSI-H/dMMR phenotype (Branch P et al., (1995), Cancer Res, 55(11): 2304-2309). It was used for detecting the enhanced immune cell response to tumor of MSI-H/dMMR phenotype by 14C12H1L1(hG1TM).
PBMCs were isolated from healthy human peripheral blood according to the Ficoll-Paque™ Plus reagent instruction, and the isolated PBMCs were counted and frozen. Raji-PDL1 cells were cultured in RPMI 1640+10% FBS complete medium, and SW48 cells (purchased from GuangZhou Jennio Biotech Co., Ltd.) were cultured in DMEM+10% FBS complete medium. PBMCs were thawed and activated with 0.5 μg/mL SEB for two days. On the day of the experiment, Raji-PDL1 cells were treated with 2 μg/mL MMC for 1 h. SEB-activated PBMCs and MMC-treated Raji-PDL1 cells were collected, washed twice with PBS, resuspended in RPMI 1640+10% FBS complete medium and counted. Raji-PDL1 and PBMC cells were seeded on 96-well plates at 1×10^5 cells/well. SW48 cells in logarithmic growth phase were collected and seeded on the 96-well plate at 2×10^5 cells/well. The diluted antibody and anlotinib was added according to the study design. The mixture was mixed evenly and incubated in a 5% CO2 incubator at 37° C. for 3 days. After 3 days, the cell culture supernatant was collected and tested for IL-2 according to ELISA KIT instruction. […]

[3] = test system: human nasopharyngeal cancer CNE-2Z cells; experiment: Raji-PDL1, PBMC and CNE-2Z co-culture with antibodies and anlotinib, IL-2 ELISA; assay type: cell-based; settings: CNE-2Z co-culture, 3 days; compared to the anti-HEL antibody and the anlotinib monotherapies
Method: PBMCs were isolated from healthy human peripheral blood according to the Ficoll-Paque™ Plus reagent instruction, and the isolated PBMCs were counted and frozen. Raji-PDL1 and CNE-2Z cells (purchased from GuangZhou Jennio Biotech Co., Ltd.) were cultured in RPMI 1640+10% FBS complete medium. PBMCs were thawed and activated with 0.5 μg/mL SEB for two days. On the day of the experiment, Raji-PDL1 cells were treated with 2 μg/mL MMC for 1 h. SEB-activated PBMCs and MMC-treated Raji-PDL1 cells were collected, washed twice with PBS, resuspended in RPMI 1640+10% FBS complete medium and counted. Raji-PDL1 and PBMC cells were seeded on 96-well plates at 1×10^5 cells/well. CNE-2Z cells in logarithmic growth phase were collected and seeded on the 96-well plate at 3×10^4 cells/well. The diluted antibodies and anlotinib were added according to the study design. The mixture was mixed evenly and incubated in a 5% CO2 incubator at 37° C. for 3 days. After 3 days, the cell culture supernatant was collected and tested for IL-2 according to ELISA KIT instruction. The media in this experiment were all 10% FBS+RPMI 1640.

CHO-K1-PD1 cells = experiment: Antibody-mediated phagocytic activity (ADCP) of murine macrophages on CHO-K1-PD1; assay type: cell-based, mouse; settings: CHO-K1-PD1-CFSE target cells
Method: To detect the antibody dependent cellular phagoxytosis (ADCP) activity, murine macrophages were used as effector cells and cell lines overexpressing PD1 were used as target cells. The femoral bone marrow of Blab/c mice (purchased from Guangdong Medical Laboratory Animal Center) was first aseptically collected and lysed by erythrocyte lysis buffer on ice for 5 min. The lysis was terminated with DMEM complete medium (containing 10% FBS), and the lysate was centrifuged at 1000 rpm and washed twice. The cell pellet was resuspended in 10 mL of DMEM complete medium and M-CSF were added at a working concentration of 100 ng/mL. […] The supernatant was discarded and the cells were suspended in DMEM complete medium (containing 10% FBS) and counted. […] CHO-K1-PD1 cells (a CHO-K1 cell line overexpressing PD1) were centrifuged at 170×g for 5 min, washed once with PBS, resuspended and counted. The viability was determined. […]
The test antibodies were diluted in DMEM complete medium to 20, 2 and 0.2 μg/mL (the working concentrations were 10, 1 and 0.1 μg/mL). […] The cells were transferred to loading tube and analyzed by BD FACS Calibur flow cytometer. […] The phagocytosis rate was determined as the ratio of the number of double positive cells to the number of APC positive cells, and the antibody-mediated ADCP activity was evaluated. […]

How did the “immune response of immune cells (IL-2)” value [1] turn out when “nivolumab: anti-PD-1 antibody nivolumab (trade name: Opdivo), purchased from Bristol-Myers Squibb [reference compound]” was run?
Its value is “significantly enhanced the immune response”.

And the “immune response of immune cells (secretion level of IL-2)” value [2]?
The value was “significantly increased secretion level of IL-2”.

And the “immune response of immune cells (IL-2 secretion level)” value [3]?
The value was “significantly increased IL-2 secretion level”.

And the ADCP effect (CHO-K1-PD1 cells)?
The ADCP effect was “have ADCP effects”.

And the “phagocytic rate relative to that of the isotype control anti-HEL antibody” value (CHO-K1-PD1 cells; at the same concentration, 2 h, flow cytometry)?
Its value is 4.26 times.
